Consider 2 compounds from patent US20040122109A1, “Preparation for hair and/or scalp” (priority 2001, published 2004).

For one assay, the system named is hairless rats. Briefly: Prevention of hair removal: hair removal score of hairless rats. The assay is classed as in vivo, rat. The conditions noted are these: for Hair removal score of hairless rat, before application: 4-week old male hairless rats in pilose period, baseline, score 1-5 (1 = no hair removal, 5 = hair removal in 60% or more); for Hair removal score of hairless rat, before application / Hair removal score of hairless rat, 71 days after: n = 5, Average ± S.D.; for Hair removal score of hairless rat, 71 days after: 10% in PEG1000 applied to back once a day for 12 days, 71st day after application was terminated, score 1-5 (lower = less hair removal); for Activity of preventing hair removal (in words): hairless rats, 10% in PEG1000, once a day for 12 days. From the text: 4-week old male hairless rats in the pilose period were used for evaluating the activity of preventing hair removal. The same samples as those used in Example 1 were used. In each group of five hairless rats, each of the samples was applied to the back of each rat once a day for 12 days, and then a hair removal state was observed after the application was stopped. The hair removal state was observed based on the following scores.
1; No hair removal was observed.
2; Hair became short in 30% or less of the applied region.

A further assay concerns C3H mice. Briefly: Hair restoration test: hair growth score on the shaved back of C3H mice. It is filed as in vivo, mouse. The following applies: for Hair growth score of C3H mouse, before application: 7-week old male C3H mice in telogen, shaved back, baseline, score 1-5 (1 = skin pink, 5 = hair growth in 60% or more); for Hair growth score of C3H mouse, before application / Hair growth score of C3H mouse, after application: n = 7, Average ± S.D.; for Hair growth score of C3H mouse, after application: 10% in PEG1000 applied to shaved portion once a day, total of 14 times, score 1-5 (higher = more hair growth); for Hair restoration activity (in words): C3H mice, 10% in PEG1000, 14 applications. From the text: The back of each of 7-week old male C3H mice in the telogen period of the hair cycle was carefully shaved, and then groups of seven mice each without wounds at the backs were subjected to a test. In a control group, only polyethylene glycol 1000 (PEG1000) used as a base was applied to each mouse, while in an evaluation group, 10% oxidized coenzyme Q10 or 10% reduced coenzyme Q10 (reduced coenzyme Q10:oxidized coenzyme Q10=95:5) was applied to the shaved portion once a day (total of 14 times). After the application, the back of each mouse was evaluated based on the scores below to evaluate the hair restoration activity of a compound.
2; Less than 30% of the shaved portion was discolored to gray.

SMILES strings stand for the structures.

Turning to `COC1=C(OC)C(=O)C(C/C=C(\C)CC/C=C(\C)CC/C=C(\C)CC/C=C(\C)CC/C=C(\C)CC/C=C(\C)CC/C=C(\C)CC/C=C(\C)CC/C=C(\C)CCC=C(C)C)=C(C)C1=O` [Oxidized coenzyme Q10, oxidized coenzyme Q10], in the assay with hairless rats, the “Hair removal score of hairless rat, before application” value stood at 1.0 ± 0.00; the “Hair removal score of hairless rat, 71 days after” value is reported as 3.6 ± 0.24; the “Activity of preventing hair removal (in words)” value is “has the activity of preventing hair removal”. For the same compound, in the assay with C3H mice, the “Hair growth score of C3H mouse, before application” value is 1.0 ± 0.00; the “Hair growth score of C3H mouse, after application” value worked out at 2.7 ± 0.35; the “Hair restoration activity (in words)” value is on record as “a hair restoration activity was observed”.
On to `COc1c(O)c(C)c(C/C=C(\C)CC/C=C(\C)CC/C=C(\C)CC/C=C(\C)CC/C=C(\C)CC/C=C(\C)CC/C=C(\C)CC/C=C(\C)CC/C=C(\C)CCC=C(C)C)c(O)c1OC` [Reduced coenzyme Q10, reduced coenzyme Q10], for which, in the assay on hairless rats, the “Hair removal score of hairless rat, before application” value is listed as 1.0 ± 0.00; the “Hair removal score of hairless rat, 71 days after” value is given as 3.0 ± 0.71; the “Activity of preventing hair removal (in words)” value is given as “has the activity of preventing hair removal”. Moreover, in the assay with C3H mice, the “Hair growth score of C3H mouse, before application” value is listed as 1.0 ± 0.00; the “Hair growth score of C3H mouse, after application” value is listed as 3.2 ± 0.64; the “Hair restoration activity (in words)” value is recorded as “a higher hair restoration activity was observed”.
